Source: ChEMBL document CHEMBL1139063, “Inhibitory effects of phloridzin dihydrate on the activity of mushroom (Agaricus bisporus) tyrosinase” (Bioorg Med Chem, 2007)

T1: Tyrosinase (Agaricus bisporus, UniProt O42713)
T1 sequence (O42713 whole entry): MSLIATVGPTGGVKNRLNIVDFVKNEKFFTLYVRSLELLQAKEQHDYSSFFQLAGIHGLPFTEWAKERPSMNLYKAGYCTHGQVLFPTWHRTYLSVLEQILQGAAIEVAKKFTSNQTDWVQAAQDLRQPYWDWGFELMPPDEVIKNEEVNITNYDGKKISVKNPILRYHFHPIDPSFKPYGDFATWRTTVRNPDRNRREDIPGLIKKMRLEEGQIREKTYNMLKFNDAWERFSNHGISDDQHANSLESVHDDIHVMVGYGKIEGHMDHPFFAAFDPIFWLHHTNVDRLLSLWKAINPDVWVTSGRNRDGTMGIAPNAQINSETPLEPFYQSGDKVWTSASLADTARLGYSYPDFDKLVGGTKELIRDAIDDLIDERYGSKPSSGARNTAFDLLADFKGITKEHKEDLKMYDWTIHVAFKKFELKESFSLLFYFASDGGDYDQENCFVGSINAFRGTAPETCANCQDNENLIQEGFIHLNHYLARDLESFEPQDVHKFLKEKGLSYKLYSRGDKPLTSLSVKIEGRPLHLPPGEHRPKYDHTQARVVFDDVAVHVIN


Legend:
Tyrosinase = biological target: T1, Tyrosinase; experiment: Inhibition of diphenolase activity of mushroom tyrosinase
[1] = substrate: O=C(CCc1ccc(O)cc1)c1c(O)cc(O)cc1O[C@@H]1O[C@H](CO)[C@@H](O)[C@H](O)[C@H]1O; conditions: Agaricus bisporus
Description: Activity of mushroom tyrosinase diphenolase

IC50 (Tyrosinase) [µM]	Ki (Tyrosinase) [µM]	Molecule	Km [1] [µM]
110	64.3	O=C(CCc1ccc(O)cc1)c1c(O)cc(O)cc1O[C@@H]1O[C@H](CO)[C@@H](O)[C@H](O)[C@H]1O	–
–	–	Tyrosinase (Agaricus bisporus), O42713 (protein) MSLIATVGPTGGVKNRLNIVDFVKNEKFFTLYVRSLELLQAKEQHDYSSFFQLAGIHGLPFTEWAKERPSMNLYKAGYCTHGQVLFPTWHRTYLSVLEQILQGAAIEVAKKFTSNQTDWVQAAQDLRQPYWDWGFELMPPDEVIKNEEVNITNYDGKKISVKNPILRYHFHPIDPSFKPYGDFATWRTTVRNPDRNRREDIPGLIKKMRLEEGQIREKTYNMLKFNDAWERFSNHGISDDQHANSLESVHDDIHVMVGYGKIEGHMDHPFFAAFDPIFWLHHTNVDRLLSLWKAINPDVWVTSGRNRDGTMGIAPNAQINSETPLEPFYQSGDKVWTSASLADTARLGYSYPDFDKLVGGTKELIRDAIDDLIDERYGSKPSSGARNTAFDLLADFKGITKEHKEDLKMYDWTIHVAFKKFELKESFSLLFYFASDGGDYDQENCFVGSINAFRGTAPETCANCQDNENLIQEGFIHLNHYLARDLESFEPQDVHKFLKEKGLSYKLYSRGDKPLTSLSVKIEGRPLHLPPGEHRPKYDHTQARVVFDDVAVHVIN	627
